Assay results: patent US11426394B2, “Method to prevent and treat macular degeneration by calcium channel blockers, angiotensin converting enzyme inhibitors, and angiotensin receptor blockers” (priority 2018, dated 2022)

What was measured:
wet macular degeneration = assay: Patient with wet macular degeneration: one eye treated, other eye left untreated; type: in vivo, human
From the text: (§1) A patient is diagnosed with wet macular degeneration. A composition comprising the calcium channel blocker nifedipine is directly applied to the vitreous surface of one eye while the other eye is left untreated. […] A patient is diagnosed with wet macular degeneration. A composition comprising the ACE inhibitor enalapril is directly applied to the vitreous surface of one eye while the other eye is left untreated. […] A patient is diagnosed with wet macular degeneration. A composition comprising the angiotensin receptor blocker losartan is directly applied to the vitreous surface of one eye while the other eye is left untreated. […] A patient is diagnosed with wet macular degeneration. A composition comprising the calcium channel blocker nifedipine is directly injected into the intraocular space of one eye while the other eye is left untreated. […] A patient is diagnosed with wet macular degeneration. A composition comprising the ACE inhibitor enalapril is directly injected into the intraocular space of one eye while the other eye is left untreated. […] A patient is diagnosed with wet macular degeneration. A composition comprising the angiotensin receptor blocker losartan is directly injected into the intraocular space of one eye while the other eye is left untreated.

dry macular degeneration = assay: Patient with dry macular degeneration: one eye treated, other eye left untreated; type: in vivo, human
From the text: as §1, with “dry” for “wet”

[1] = in vivo; cited from earlier work
Macular Degeneration = conditions: chronic use; cited from earlier work
[2] = composition directly applied to the vitreous surface of one eye
[3] = composition directly injected into the intraocular space of one eye

Row | Compound | symptoms of wet macular degeneration, treated eye versus untreated eye (wet macular degeneration; [2]) | symptoms of wet macular degeneration, treated eye versus untreated eye (wet macular degeneration; [3]) | symptoms of dry macular degeneration, treated eye versus untreated eye (dry macular degeneration; [2]) | symptoms of dry macular degeneration, treated eye versus untreated eye (dry macular degeneration; [3]) | further results
1 | CCOC(=O)[C@H](CCc1ccccc1)N[C@@H](C)C(=O)N1CCC[C@H]1C(=O)O [enalapril] | reduced symptoms of wet macular degeneration | reduced symptoms of wet macular degeneration | reduced symptoms of dry macular degeneration | reduced symptoms of dry macular degeneration | 
2 | CC1=C(/C=C/C(C)=C/C=C/C(C)=C/C=C/C=C(C)/C=C/C=C(C)/C=C/C2=C(C)CCCC2(C)C)C(C)(C)CCC1 [Beta carotene, beta carotene] |  |  |  |  | lung cancer [1]: increase lung cancer
3 | CC(=O)Oc1ccccc1C(=O)O [aspirin] |  |  |  |  | association with Macular Degeneration (Macular Degeneration): increase in Macular Degeneration
4 | CCCCc1nc(Cl)c(CO)n1Cc1ccc(-c2ccccc2-c2nn[nH]n2)cc1 [losartan] | reduced symptoms of wet macular degeneration | reduced symptoms of wet macular degeneration | reduced symptoms of dry macular degeneration | reduced symptoms of dry macular degeneration | 
5 | tocopherol |  |  |  |  | all-cause mortality [1]: increase in all-cause mortality
